# Experimental data from PubChem BioAssay AID1918934 (Molecular Pharmacology Branch, DTP, NCI, 2023).
# Tested on: 292921-168-R-J2-PDC complex spheroid viability
# Assay: Anticancer human tumor 292921-168-R-J2-PDC patient-derived pancreatic carcinoma cell line growth inhibition
# Conditions: for IC50: curve of first compound; for viability, T/C: stronger effect = lower value
# In short: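 Multicellular complex spheroids of tumor cells with human endothelial cells (HUVEC) and mesenchymal stem cells; the LSD1 inhibitor iadademstat was combined with standard-of-care or investigational agents. Top concentration at or near clinical Cmax, half-log dilutions; final DMSO ≤0.25%.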
# [1] = second compound 0.1 µM, first compound 0.0316 µM
# [2] = second compound 0.1 µM, first compound 0.1 µM
# [3] = second compound 0.1 µM, first compound 0.316 µM
# [4] = second compound 0.1 µM, first compound 1 µM
# [5] = second compound 0.1 µM, first compound 3.16 µM
# [6] = second compound 0.1 µM, first compound 10 µM
# [7] = second compound 0.316 µM, first compound 0.0316 µM
# [8] = second compound 0.316 µM, first compound 0.1 µM
# [9] = second compound 0.316 µM, first compound 0.316 µM
# [10] = second compound 0.316 µM, first compound 1 µM
# [11] = second compound 0.316 µM, first compound 3.16 µM
# [12] = second compound 0.316 µM, first compound 10 µM
# [13] = second compound 1 µM, first compound 0.0316 µM
# [14] = second compound 1 µM, first compound 0.1 µM
# [15] = second compound 1 µM, first compound 0.316 µM
# [16] = second compound 1 µM, first compound 1 µM
# [17] = second compound 1 µM, first compound 3.16 µM
# [18] = second compound 1 µM, first compound 10 µM
# [19] = second compound 3.16 µM, first compound 0.0316 µM
# [20] = second compound 3.16 µM, first compound 0.1 µM
# [21] = second compound 3.16 µM, first compound 0.316 µM
# [22] = second compound 3.16 µM, first compound 1 µM
# [23] = second compound 3.16 µM, first compound 3.16 µM
# [24] = second compound 3.16 µM, first compound 10 µM
# [25] = second compound 10 µM, first compound 0.0316 µM
# [26] = second compound 10 µM, first compound 0.1 µM
# [27] = second compound 10 µM, first compound 0.316 µM
# [28] = second compound 10 µM, first compound 1 µM
# [29] = second compound 10 µM, first compound 3.16 µM
# [30] = second compound 10 µM, first compound 10 µM
# [31] = second compound 0.1 µM, first compound 0.00949 µM
# [32] = second compound 0.1 µM, first compound 0.03 µM
# [33] = second compound 0.1 µM, first compound 0.0949 µM
# [34] = second compound 0.1 µM, first compound 0.3 µM
# [35] = second compound 0.316 µM, first compound 0.00949 µM
# [36] = second compound 0.316 µM, first compound 0.03 µM
# [37] = second compound 0.316 µM, first compound 0.0949 µM
# [38] = second compound 0.316 µM, first compound 0.3 µM
# [39] = second compound 1 µM, first compound 0.00949 µM
# [40] = second compound 1 µM, first compound 0.03 µM
# [41] = second compound 1 µM, first compound 0.0949 µM
# [42] = second compound 1 µM, first compound 0.3 µM
# [43] = second compound 3.16 µM, first compound 0.00949 µM
# [44] = second compound 3.16 µM, first compound 0.03 µM
# [45] = second compound 3.16 µM, first compound 0.0949 µM
# [46] = second compound 3.16 µM, first compound 0.3 µM
# [47] = second compound 10 µM, first compound 0.00949 µM
# [48] = second compound 10 µM, first compound 0.03 µM
# [49] = second compound 10 µM, first compound 0.0949 µM
# [50] = second compound 10 µM, first compound 0.3 µM
# 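Also: seven day compound exposure before luminescent viability read.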
# 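For viability, T/C in this document: 100% = DMSO vehicle control wells.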
compound,measurement,setting,value
CC1(C)CCC(CN2CCN(c3ccc(C(=O)NS(=O)(=O)c4ccc(NCC5CCOCC5)c([N+](=O)[O-])c4)c(Oc4cnc5[nH]ccc5c4)c3)CC2)=C(c2ccc(Cl)cc2)C1 + NC1CC1c1ccc(-c2cccc(O)c2)cc1,IC50,second compound 0.1 µM,1.86 µM
same,IC50,second compound 0.316 µM,1.75 µM
same,IC50,second compound 1 µM,1.75 µM
same,IC50,second compound 3.16 µM,1.39 µM
same,IC50,second compound 10 µM,0.958 µM
same,"viability, T/C",[1],75.5%
same,"viability, T/C",[2],92.6%
same,"viability, T/C",[3],81.9%
same,"viability, T/C",[4],82.8%
same,"viability, T/C",[5],22.1%
same,"viability, T/C",[6],0.22%
same,"viability, T/C",[7],72.5%
same,"viability, T/C",[8],79.7%
same,"viability, T/C",[9],74.5%
same,"viability, T/C",[10],78.2%
same,"viability, T/C",[11],22.5%
same,"viability, T/C",[12],0.21%
same,"viability, T/C",[13],67.8%
same,"viability, T/C",[14],68.3%
same,"viability, T/C",[15],71.7%
same,"viability, T/C",[16],78%
same,"viability, T/C",[17],27.1%
same,"viability, T/C",[18],0.27%
same,"viability, T/C",[19],62.4%
same,"viability, T/C",[20],59%
same,"viability, T/C",[21],58.3%
same,"viability, T/C",[22],65.6%
same,"viability, T/C",[23],21.6%
same,"viability, T/C",[24],0.19%
same,"viability, T/C",[25],49.8%
same,"viability, T/C",[26],58.4%
same,"viability, T/C",[27],52.4%
same,"viability, T/C",[28],49.9%
same,"viability, T/C",[29],12.1%
same,"viability, T/C",[30],0.19%
CC1COCCN1c1cc(C2(S(C)(=N)=O)CC2)nc(-c2ccnc3[nH]ccc23)n1 (stereo not given) + NC1CC1c1ccc(-c2cccc(O)c2)cc1,IC50,second compound 0.1 µM,0.368 µM
same,IC50,second compound 0.316 µM,0.318 µM
same,IC50,second compound 1 µM,0.293 µM
same,IC50,second compound 3.16 µM,0.253 µM
same,IC50,second compound 10 µM,0.104 µM
same,"viability, T/C",[1],88.3%
same,"viability, T/C",[2],82%
same,"viability, T/C",[3],51%
same,"viability, T/C",[4],28.8%
same,"viability, T/C",[5],15.2%
same,"viability, T/C",[6],11.4%
same,"viability, T/C",[7],66.8%
same,"viability, T/C",[8],58.8%
same,"viability, T/C",[9],51.8%
same,"viability, T/C",[10],26.5%
same,"viability, T/C",[11],15.4%
same,"viability, T/C",[12],11.4%
same,"viability, T/C",[13],63.1%
same,"viability, T/C",[14],61.6%
same,"viability, T/C",[15],48.9%
same,"viability, T/C",[16],25.5%
same,"viability, T/C",[17],13.2%
same,"viability, T/C",[18],11.5%
same,"viability, T/C",[19],59.4%
same,"viability, T/C",[20],63.6%
same,"viability, T/C",[21],46.3%
same,"viability, T/C",[22],23.2%
same,"viability, T/C",[23],13.7%
same,"viability, T/C",[24],11.8%
same,"viability, T/C",[25],50.9%
same,"viability, T/C",[26],53.3%
same,"viability, T/C",[27],39.6%
same,"viability, T/C",[28],27.1%
same,"viability, T/C",[29],12.2%
same,"viability, T/C",[30],11.4%
CCN(c1cc(-c2ccc(CN3CCOCC3)cc2)cc(C(=O)NCc2c(C)cc(C)[nH]c2=O)c1C)C1CCOCC1 + NC1CC1c1ccc(-c2cccc(O)c2)cc1,IC50,second compound 0.1 µM,1.08 µM
same,IC50,second compound 0.316 µM,1.02 µM
same,IC50,second compound 1 µM,1.1 µM
same,IC50,second compound 3.16 µM,1.07 µM
same,IC50,second compound 10 µM,0.763 µM
same,"viability, T/C",[31],77.2%
same,"viability, T/C",[32],79.2%
same,"viability, T/C",[33],81.9%
same,"viability, T/C",[34],77.1%
same,"viability, T/C","second compound 0.1 µM, first compound 0.949 µM",53.5%
same,"viability, T/C","second compound 0.1 µM, first compound 3 µM",22.1%
same,"viability, T/C",[35],69.5%
same,"viability, T/C",[36],82.7%
same,"viability, T/C",[37],77.5%
same,"viability, T/C",[38],71.7%
same,"viability, T/C","second compound 0.316 µM, first compound 0.949 µM",51.9%
same,"viability, T/C","second compound 0.316 µM, first compound 3 µM",21.7%
same,"viability, T/C",[39],68.6%
same,"viability, T/C",[40],72%
same,"viability, T/C",[41],68.8%
same,"viability, T/C",[42],68.4%
same,"viability, T/C","second compound 1 µM, first compound 0.949 µM",54.5%
same,"viability, T/C","second compound 1 µM, first compound 3 µM",19.4%
same,"viability, T/C",[43],70.7%
same,"viability, T/C",[44],75.3%
same,"viability, T/C",[45],70.2%
same,"viability, T/C",[46],64.5%
same,"viability, T/C","second compound 3.16 µM, first compound 0.949 µM",54.1%
same,"viability, T/C","second compound 3.16 µM, first compound 3 µM",22.3%
same,"viability, T/C",[47],62.7%
same,"viability, T/C",[48],62.5%
same,"viability, T/C",[49],62.5%
same,"viability, T/C",[50],60.2%
same,"viability, T/C","second compound 10 µM, first compound 0.949 µM",47.6%
same,"viability, T/C","second compound 10 µM, first compound 3 µM",21.8%
Cn1ncnc1C1c2n[nH]c(=O)c3cc(F)cc(c23)NC1c1ccc(F)cc1 (stereo not given) + NC1CC1c1ccc(-c2cccc(O)c2)cc1,IC50,second compound 0.1 µM,> 0.1 µM
same,IC50,second compound 0.316 µM,> 0.1 µM
same,IC50,second compound 1 µM,> 0.1 µM
same,IC50,second compound 3.16 µM,> 0.1 µM
same,IC50,second compound 10 µM,0.00646 µM
same,"viability, T/C","second compound 0.1 µM, first compound 0.000316 µM",87.2%
same,"viability, T/C","second compound 0.1 µM, first compound 0.001 µM",83.4%
same,"viability, T/C","second compound 0.1 µM, first compound 0.00316 µM",76.7%
same,"viability, T/C","second compound 0.1 µM, first compound 0.01 µM",71.2%
same,"viability, T/C",[1],67.3%
same,"viability, T/C",[2],65.5%
same,"viability, T/C","second compound 0.316 µM, first compound 0.000316 µM",71%
same,"viability, T/C","second compound 0.316 µM, first compound 0.001 µM",75%
same,"viability, T/C","second compound 0.316 µM, first compound 0.00316 µM",67%
same,"viability, T/C","second compound 0.316 µM, first compound 0.01 µM",63.4%
same,"viability, T/C",[7],57.8%
same,"viability, T/C",[8],62.2%
same,"viability, T/C","second compound 1 µM, first compound 0.000316 µM",72.2%
same,"viability, T/C","second compound 1 µM, first compound 0.001 µM",62.8%
same,"viability, T/C","second compound 1 µM, first compound 0.00316 µM",67.3%
same,"viability, T/C","second compound 1 µM, first compound 0.01 µM",58.1%
same,"viability, T/C",[13],64%
same,"viability, T/C",[14],60.3%
same,"viability, T/C","second compound 3.16 µM, first compound 0.000316 µM",69.2%
same,"viability, T/C","second compound 3.16 µM, first compound 0.001 µM",64.2%
same,"viability, T/C","second compound 3.16 µM, first compound 0.00316 µM",59.7%
same,"viability, T/C","second compound 3.16 µM, first compound 0.01 µM",54.5%
same,"viability, T/C",[19],50.5%
same,"viability, T/C",[20],52.5%
same,"viability, T/C","second compound 10 µM, first compound 0.000316 µM",51.9%
same,"viability, T/C","second compound 10 µM, first compound 0.001 µM",58%
same,"viability, T/C","second compound 10 µM, first compound 0.00316 µM",51.9%
same,"viability, T/C","second compound 10 µM, first compound 0.01 µM",48.3%
same,"viability, T/C",[25],43.6%
same,"viability, T/C",[26],43.6%
Nc1ncn(C2CC(O)C(CO)S2)c(=O)n1 (stereo not given) + NC1CC1c1ccc(-c2cccc(O)c2)cc1,IC50,second compound 0.1 µM,0.0613 µM
same,IC50,second compound 0.316 µM,0.0531 µM
same,IC50,second compound 1 µM,0.0503 µM
same,IC50,second compound 3.16 µM,0.04 µM
same,IC50,second compound 10 µM,0.0365 µM
same,"viability, T/C","second compound 0.1 µM, first compound 0.000949 µM",83%
same,"viability, T/C","second compound 0.1 µM, first compound 0.003 µM",80.8%
same,"viability, T/C",[31],73.2%
same,"viability, T/C",[32],62.2%
same,"viability, T/C",[33],42.7%
same,"viability, T/C",[34],11.5%
same,"viability, T/C","second compound 0.316 µM, first compound 0.000949 µM",66.8%
same,"viability, T/C","second compound 0.316 µM, first compound 0.003 µM",73.2%
same,"viability, T/C",[35],63.9%
same,"viability, T/C",[36],63.1%
same,"viability, T/C",[37],37.3%
same,"viability, T/C",[38],13.3%
same,"viability, T/C","second compound 1 µM, first compound 0.000949 µM",63.9%
same,"viability, T/C","second compound 1 µM, first compound 0.003 µM",67%
same,"viability, T/C",[39],74.4%
same,"viability, T/C",[40],56.9%
same,"viability, T/C",[41],38.5%
same,"viability, T/C",[42],12.8%
same,"viability, T/C","second compound 3.16 µM, first compound 0.000949 µM",67.5%
same,"viability, T/C","second compound 3.16 µM, first compound 0.003 µM",66.8%
same,"viability, T/C",[43],62.6%
same,"viability, T/C",[44],55.1%
same,"viability, T/C",[45],36%
same,"viability, T/C",[46],12.8%
same,"viability, T/C","second compound 10 µM, first compound 0.000949 µM",55.2%
same,"viability, T/C","second compound 10 µM, first compound 0.003 µM",62%
same,"viability, T/C",[47],59.9%
same,"viability, T/C",[48],52.8%
same,"viability, T/C",[49],33.6%
same,"viability, T/C",[50],15.5%
